Reference: patent US12559513B2, “Aromatic glycoside and method for producing the glycoside” (CAROTENOID-PRODUCTION TECHNOLOGY CORPORATION (CaroProTech), priority 2022, dated 2026)

Tests used:
rat brain homogenate = assay: Peroxidation-inhibiting test of rat brain lipids (rat brain homogenate, TBA method); type: biochemical; details: for IC50: 1 hour at 37° C., malondialdehyde by A532, read-out: IC50 (50% inhibition concentration of rat brain lipid-peroxidation)
Protocol: The lipid peroxidation-inhibiting assay with rat brain homogenate is an experimental system for evaluating damages of biological system caused by the generation of ROS (Reactive Oxygen Species). It is because the rat brain is an organ that is easily oxidized by ROS. Using this system, we evaluated antioxidative activity of compounds 1-5.
Using rat brain homogenate, we examined lipid peroxidation-inhibiting activities of the test compounds. It was performed by incubating rat brain homogenate to proceed with lipid peroxidation reactions, with each compound and with no compound (as the control), by measuring the amounts of consequently generated malondialdehyde by absorbance at 532 nm in the TBA method, and by comparing the amounts of the malondialdehyde products between them.
We preincubated IWAKI disposable test tube ([…]×100 mm) that contained 0.6 mL of 100 mM phosphate buffer (pH 7.4), 0.05 mL of each test sample-including solution, 0.1 mL of 1 mM ascorbic acid, and 0.05 mL of distilled water at 37° C. for 5 min. And 0.2 mL of 2.5% (w/v) rat brain homogenate was added to the test tube, and incubated for 1 hour at 37° C. with shaking (150 rpm). Then, 1 mL of 0.2 N HCl solution including 20% (W/V) trichloroacetic acid and 0.5% (W/V) 2-thiobarbituric acid was added to the above test tube to stop the reaction. Next, this test tube containing each reaction solution was boiled for 30 min at 100° C. to produce color. After chilled on ice, each solution from the test tube was centrifuged with 3,000 rpm for 10 min, and the absorbance of each supernatant was measured at 532 nm (A532).
The lipid peroxidation-inhibiting ratio (%) of each extracted solution (containing each flavonoid glycoside as a test compound (T)) was calculated using the following Formula 1. (1−[T−B]/[C−B])′100. Formula 1
T (test), C (control), and B (blank) are A532 of a test compound with the rat brain homogenate, the control (no compound (instead ethanol) with the homogenate), and the blank control (no compound (instead ethanol) without the homogenate (instead phosphate buffer)), respectively. The lipid peroxidation-inhibiting activity was determined as the IC50 value, representing the concentration at which 50% inhibition was observed.
(Peroxidation-Inhibiting Test of Rat Brain Lipids)

[1] = test system: mouse preadipocyte 3T3-L1; assay: Differentiation-inducing test of mouse preadipocyte 3T3-L1 (Oil Red O staining); type: cell-based; details: 3T3-L1 cells, differentiation cocktail with insulin for 6 days
From the text: Mouse preadipocyte 3T3-L1 is used for screening of activities for lipid metabolism improvement and anti-diabetes, since 3T3-L1 is induced to the differentiation of small adipocyte under proper conditions. This differentiated fat cell produces lipid bodies that can be stained with Oil Red O. PPAR (Peroxisome Proliferator-Activated Receptor) belongs to nuclear receptor superfamily. PPARγ is importantly related to differentiation of fat cells, e.g., activated PPARγ promotes differentiation from preadipocyte to adipocyte. Furthermore, PPARγ promotes apoptosis of large fat cells. Compounds activating PPARγ (PPARγ agonists) improve insulin resistance by inducing apoptosis of large fat cells that are willing to produce TNF-α and free fatty acids, reluctant to import sugars, and induce insulin resistance. PPARγ agonists further reduce blood glucose levels, and exert anti-diabetes activity by inducing differentiation to small fat cells that are reluctant to produce TNF-α and free fatty acids, willing to import glucose in blood, and improve glucose metabolism. Currently, PPARγ agonists such as rosiglitazone (thiazolidine) are used clinically to treat patients with type-2 diabetes mellitus.
In the present EXAMPLE, we carried out to examine whether aromatic compound glycosides can promote differentiation to small fat cells, using mouse 3T3-L1 preadipocyte.
Thus, we examined the PPARγ agonistic activities of compounds 3, 4, 20, and 21, which were selected as the representatives.
The 3T3-L1 cell line was purchased from Japanese Collection of Research Bioresources Cell Bank (JCRB, Osaka, Japan). The 3T3-L1 cells were cultured in DMEM with 10% fetal calf serum (FCS, Sigma Aldrich, St Lous, USA) and antibiotics ([…]). The cells were seeded in collagen coated 12-well plates at 10,000 cells/well (1 mL) and grown to confluence for 2 days. The differentiation procedure was initiated 2 days after cells reached confluence by changing the medium to the differentiation cocktail ([…] in DMEM containing 10% FBS and antibiotics) with or without various concentrations of test compounds (positive control, thiazolidine; four aromatic compound glycosite) dissolved in DMSO (10^3-10^4 times dilutions of the stocks were used). Thereafter, the cells were grown in the differentiation cocktail for 6 days.
Then, Oil Red O (ORO) staining was performed to evaluate the ratio of the differentiated 3T3-L1 cells. […] ORO was then extracted from fixed cells with 100% isopropanol (1 mL), and OD500 values of isopropanol solution, which reflect the ORO amount imported into the cells (=the lipid (body) amount of the differentiated cells), were measured by 96-well microplate reader. […]

Row | IC50 (rat brain homogenate) [µM] | SMILES | activity for differentiation induction to small fat cells (adipose) [1] | lipid peroxidation-inhibiting activity (in words) (rat brain homogenate)
1 | 1.1 | O=C(/C=C/c1ccc(O)c(O)c1)Oc1cc(-c2oc3cc(O)cc(O)c3c(=O)c2O[C@@H]2OC(CO)[C@@H](O)[C@H](O)C2O[C@@H]2OC(CO)[C@@H](O)[C@H](O)C2O)ccc1O (stereo partly shown) [Compound 4] | strong activity for differentiation induction to small fat cells | –
2 | 1.4 | CC1OC(Oc2cc(O)c3c(=O)c(OC4OC(C)C(O)C(O)C4O[C@@H]4OC(CO)[C@@H](O)[C@H](O)C4O)c(-c4ccc(O)c(OC(=O)/C=C/c5ccc(O)c(O)c5)c4)oc3c2)C(O)C(O)C1O (stereo partly shown) [Compound 3] | strong activity for differentiation induction to small fat cells | –
3 | 1.7 | CC1OC(Oc2cc(O)c3c(=O)c(O[C@@H]4OC(CO)[C@@H](O)C(O)C4O[C@@H]4OC(CO)[C@@H](O)C(O)C4O)c(-c4ccc(O)c(OC(=O)/C=C/c5ccc(O)c(O)c5)c4)oc3c2)C(O)C(O)C1O (stereo partly shown) [Compound 1] | – | –
4 | 15 | CC1OC(Oc2cc(O)c3c(=O)c(O[C@@H]4OC(CO)[C@@H](O)C(O)C4O[C@@H]4OC(CO)[C@@H](O)C(O)C4O)c(-c4ccc(OC(=O)/C=C/c5ccc(O)c(O)c5)cc4)oc3c2)C(O)C(O)C1O (stereo partly shown) [Compound 2] | – | –
5 | 1.5 | O=C(/C=C/c1ccc(O)c(O)c1)Oc1cc(-c2oc3cc(O[C@@H]4OC(C(=O)O)[C@@H](O)C(O)C4O)cc(O)c3c(=O)c2O[C@@H]2OC(CO)[C@@H](O)C(O)C2O[C@@H]2OC(CO)[C@@H](O)C(O)C2O)ccc1O (stereo partly shown) [Compound 20] | strong activity for differentiation induction to small fat cells | possess peroxidation-inhibiting activity
6 | 23 | O=C(/C=C/c1ccc(O)c(O)c1)Oc1ccc(-c2oc3cc(O[C@@H]4OC(C(=O)O)[C@@H](O)C(O)C4O)cc(O)c3c(=O)c2O[C@@H]2OC(CO)[C@@H](O)C(O)C2O[C@@H]2OC(CO)[C@@H](O)C(O)C2O)cc1 (stereo partly shown) [Compound 21] | strong activity for differentiation induction to small fat cells | possess peroxidation-inhibiting activity
7 | 1.5 | CC1OC(Oc2c(-c3ccc(O)c(OC(=O)/C=C/c4ccc(O)c(O)c4)c3)oc3cc(O[C@@H]4OC(CO)[C@@H](O)[C@H](O)C4O)cc(O)c3c2=O)C(O[C@@H]2OC(CO)[C@@H](O)[C@H](O)C2O)C(O)C1O (stereo partly shown) [Compound 5] | – | –
